Measurements as given in patent publication US20090220648A1, “Nutritional additive for animals” (KEMIRA GROW HOW AB, priority 2005, published 2009).

Test: Buffering capacity
Format: physicochemical

SMILES	buffering capacity, mekvH+/kg sample
O=C([O-])[O-].[Ca+2] [CaCO3]	14850 mekvH+/kg sample
O=S(=O)([O-])[O-].[Ca+2] [CaSO4]	50 mekvH+/kg sample
